{"source": "patent US12441685B2", "about": "“Compounds and methods for treating cancer” (DANA-FARBER CANCER INSTITUTE, INC., priority 2015, dated 2025)", "origin": "cited, not measured here", "settings": "Phase II study, patients with NBCCS (Tang et al., 2012)"}
{"smiles": "CS(=O)(=O)c1ccc(C(=O)Nc2ccc(Cl)c(-c3ccccn3)c2)c(Cl)c1", "note": "[vismodegib]", "values": [{"measurement": "participants who ceased treatment due to serious adverse effects", "value": "14 of 26"}]}
